Assay results as given in ChEMBL document CHEMBL3045835, “Comparative study of conventional and microwave-assisted synthesis of some Schiff bases and their potential as antimicrobial agents” (2012).
Converted amounts (≈) assume the structure as drawn.

How the values were obtained:
Format in all cases: functional
[1] = tested on: Penicillium chrysogenum; assay: Antifungal activity against Penicillium chrysogenum MTCC 161 at 500 ug/ml after 18 hr by cup-plate method; conditions: MTCC 161, 18 h, read-out: DIZ
[2] = tested on: Bacillus subtilis; assay: Antibacterial activity against Bacillus subtilis MTCC 441 at 1000 ug/ml after 18 hr by cup plate method; conditions: MTCC 441, 18 h, read-out: DIZ
[3] = tested on: Penicillium chrysogenum; assay: Antifungal activity against Penicillium chrysogenum MTCC 161 at 1000 ug/ml after 18 hr by cup-plate method; conditions: MTCC 161, 18 h, read-out: DIZ
[4] = tested on: Bacillus subtilis; assay: Antibacterial activity against Bacillus subtilis MTCC 441 at 1500 ug/ml after 18 hr by cup plate method; conditions: MTCC 441, 18 h, read-out: DIZ
[5] = tested on: Micrococcus luteus; assay: Antibacterial activity against Micrococcus luteus MTCC 1538 at 500 ug/ml after 18 hr by cup-plate method; conditions: MTCC 1538, 18 h, read-out: DIZ
[6] = tested on: Pseudomonas aeruginosa; assay: Antibacterial activity against Pseudomonas aeruginosa MTCC 424 at 1500 ug/ml after 18 hr by cup-plate method; conditions: MTCC 424, 18 h, read-out: DIZ
[7] = tested on: Staphylococcus aureus; assay: Antibacterial activity against Staphylococcus aureus MTCC 1430 at 1500 ug/ml after 18 hr by cup-plate method; conditions: MTCC 1430, 18 h, read-out: DIZ
[8] = tested on: Bacillus pumilus; assay: Antibacterial activity against Bacillus pumilus MTCC 1456 at 1500 ug/ml after 18 hr by cup-plate method; conditions: MTCC 1456, 18 h, read-out: DIZ
[9] = tested on: Pseudomonas fluorescens; assay: Antibacterial activity against Pseudomonas fluorescens MTCC 2421 at 1500 ug/ml after 18 hr by cup-plate method; conditions: MTCC 2421, 18 h, read-out: DIZ
[10] = tested on: Aspergillus niger; assay: Antifungal activity against Aspergillus niger MTCC 2546 after 24 hr by broth dilution method; conditions: MTCC 2546, 24 h
[11] = tested on: Pseudomonas fluorescens; assay: Antibacterial activity against Pseudomonas fluorescens MTCC 2421 at 200 ug/ml after 18 hr by cup-plate method; conditions: MTCC 2421, 18 h, read-out: DIZ
[12] = tested on: Micrococcus luteus; assay: Antibacterial activity against Micrococcus luteus MTCC 1538 at 100 ug/ml after 18 hr by cup-plate method; conditions: MTCC 1538, 18 h, read-out: DIZ
[13] = tested on: Bacillus subtilis; assay: Antibacterial activity against Bacillus subtilis MTCC 441 after 24 hr by broth dilution method; conditions: MTCC 441, 24 h
[14] = tested on: Pseudomonas fluorescens; assay: Antibacterial activity against Pseudomonas fluorescens MTCC 2421 at 100 ug/ml after 18 hr by cup-plate method; conditions: MTCC 2421, 18 h, read-out: DIZ
[15] = tested on: Staphylococcus aureus; assay: Antibacterial activity against Staphylococcus aureus MTCC 1430 at 100 ug/ml after 18 hr by cup-plate method; conditions: MTCC 1430, 18 h, read-out: DIZ
[16] = tested on: Escherichia coli; assay: Antibacterial activity against Escherichia coli MTCC 1573 at 1500 ug/ml after 18 hr by cup-plate method; conditions: MTCC 1573, 18 h, read-out: DIZ
[17] = tested on: Penicillium chrysogenum; assay: Antifungal activity against Penicillium chrysogenum MTCC 161 at 1500 ug/ml after 18 hr by cup-plate method; conditions: MTCC 161, 18 h, read-out: DIZ
[18] = tested on: Micrococcus luteus; assay: Antibacterial activity against Micrococcus luteus MTCC 1538 at 200 ug/ml after 18 hr by cup-plate method; conditions: MTCC 1538, 18 h, read-out: DIZ
[19] = tested on: Pseudomonas fluorescens; assay: Antibacterial activity against Pseudomonas fluorescens MTCC 2421 at 1000 ug/ml after 18 hr by cup-plate method; conditions: MTCC 2421, 18 h, read-out: DIZ
[20] = tested on: Pseudomonas fluorescens; assay: Antibacterial activity against Pseudomonas fluorescens MTCC 2421 after 24 hr by broth dilution method; conditions: MTCC 2421, 24 h
[21] = tested on: Escherichia coli; assay: Antibacterial activity against Escherichia coli MTCC 1573 at 1000 ug/ml after 18 hr by cup-plate method; conditions: MTCC 1573, 18 h, read-out: DIZ
[22] = tested on: Micrococcus luteus; assay: Antibacterial activity against Micrococcus luteus MTCC 1538 after 24 hr by broth dilution method; conditions: MTCC 1538, 24 h
[23] = tested on: Penicillium chrysogenum; assay: Antifungal activity against Penicillium chrysogenum MTCC 161 after 24 hr by broth dilution method; conditions: MTCC 161, 24 h
[24] = tested on: Aspergillus niger; assay: Antifungal activity against Aspergillus niger MTCC 2546 at 500 ug/ml after 18 hr by cup-plate method; conditions: MTCC 2546, 18 h, read-out: DIZ
[25] = tested on: Escherichia coli; assay: Antibacterial activity against Escherichia coli MTCC 1573 after 24 hr by broth dilution method; conditions: MTCC 1573, 24 h
[26] = tested on: Bacillus pumilus; assay: Antibacterial activity against Bacillus pumilus MTCC 1456 after 24 hr by broth dilution method; conditions: MTCC 1456, 24 h
[27] = tested on: Pseudomonas fluorescens; assay: Antibacterial activity against Pseudomonas fluorescens MTCC 2421 at 500 ug/ml after 18 hr by cup-plate method; conditions: MTCC 2421, 18 h, read-out: DIZ
[28] = tested on: Staphylococcus aureus; assay: Antibacterial activity against Staphylococcus aureus MTCC 1430 at 200 ug/ml after 18 hr by cup-plate method; conditions: MTCC 1430, 18 h, read-out: DIZ
[29] = tested on: Micrococcus luteus; assay: Antibacterial activity against Micrococcus luteus MTCC 1538 at 1500 ug/ml after 18 hr by cup-plate method; conditions: MTCC 1538, 18 h, read-out: DIZ
[30] = tested on: Staphylococcus aureus; assay: Antibacterial activity against Staphylococcus aureus MTCC 1430 at 500 ug/ml after 18 hr by cup-plate method; conditions: MTCC 1430, 18 h, read-out: DIZ
[31] = tested on: Staphylococcus aureus; assay: Antibacterial activity against Staphylococcus aureus MTCC 1430 at 1000 ug/ml after 18 hr by cup-plate method; conditions: MTCC 1430, 18 h, read-out: DIZ
[32] = tested on: Pseudomonas aeruginosa; assay: Antibacterial activity against Pseudomonas aeruginosa MTCC 424 after 24 hr by broth dilution method; conditions: MTCC 424, 24 h
[33] = tested on: Staphylococcus aureus; assay: Antibacterial activity against Staphylococcus aureus MTCC 1430 after 24 hr by broth dilution method; conditions: MTCC 1430, 24 h
[34] = tested on: Aspergillus niger; assay: Antifungal activity against Aspergillus niger MTCC 2546 at 1000 ug/ml after 18 hr by cup-plate method; conditions: MTCC 2546, 18 h, read-out: DIZ
[35] = tested on: Micrococcus luteus; assay: Antibacterial activity against Micrococcus luteus MTCC 1538 at 1000 ug/ml after 18 hr by cup-plate method; conditions: MTCC 1538, 18 h, read-out: DIZ
[36] = tested on: Bacillus pumilus; assay: Antibacterial activity against Bacillus pumilus MTCC 1456 at 1000 ug/ml after 18 hr by cup-plate method; conditions: MTCC 1456, 18 h, read-out: DIZ
[37] = tested on: Aspergillus niger; assay: Antifungal activity against Aspergillus niger MTCC 2546 at 1500 ug/ml after 18 hr by cup-plate method; conditions: MTCC 2546, 18 h, read-out: DIZ
[38] = tested on: Pseudomonas aeruginosa; assay: Antibacterial activity against Pseudomonas aeruginosa MTCC 424 at 1000 ug/ml after 18 hr by cup-plate method; conditions: MTCC 424, 18 h, read-out: DIZ

MIC [10]: 500 µg/mL (≈ 1880 µM) | MIC [13]: 500 µg/mL (≈ 1880 µM) | MIC [20]: 300 µg/mL (≈ 1130 µM) | MIC [22]: 300 µg/mL (≈ 1130 µM) | MIC [23]: 500 µg/mL (≈ 1880 µM) | MIC [25]: 500 µg/mL (≈ 1880 µM) | MIC [26]: 500 µg/mL (≈ 1880 µM) | MIC [32]: 500 µg/mL (≈ 1880 µM) | MIC [33]: 400 µg/mL (≈ 1510 µM)
SMILES: Clc1ccc(/N=C\c2cccc3ccccc23)cc1
zone of inhibition at 500 µg/mL [1]: 11 mm | zone of inhibition at 1000 µg/mL [2]: 15 mm | zone of inhibition at 1000 µg/mL [3]: 13 mm | zone of inhibition at 1500 µg/mL [4]: 17 mm | zone of inhibition at 500 µg/mL [5]: 19 mm | zone of inhibition at 1500 µg/mL [6]: 14 mm | zone of inhibition at 1500 µg/mL [7]: 21 mm | zone of inhibition at 1500 µg/mL [8]: 10 mm | zone of inhibition at 1500 µg/mL [9]: 19 mm | zone of inhibition at 200 µg/mL [11]: 12 mm | zone of inhibition at 100 µg/mL [12]: 13 mm | zone of inhibition at 100 µg/mL [14]: 11 mm | zone of inhibition at 100 µg/mL [15]: 11 mm | zone of inhibition at 1500 µg/mL [16]: 17 mm | zone of inhibition at 1500 µg/mL [17]: 14 mm | zone of inhibition at 200 µg/mL [18]: 16 mm | zone of inhibition at 1000 µg/mL [19]: 17 mm | zone of inhibition at 1000 µg/mL [21]: 11 mm | zone of inhibition at 500 µg/mL [24]: 11 mm | zone of inhibition at 500 µg/mL [27]: 14 mm | zone of inhibition at 200 µg/mL [28]: 13 mm | zone of inhibition at 1500 µg/mL [29]: 25 mm | zone of inhibition at 500 µg/mL [30]: 15 mm | zone of inhibition at 1000 µg/mL [31]: 18 mm | zone of inhibition at 1000 µg/mL [34]: 13 mm | zone of inhibition at 1000 µg/mL [35]: 21 mm | zone of inhibition at 1000 µg/mL [36]: 9 mm | zone of inhibition at 1500 µg/mL [37]: 15 mm | zone of inhibition at 1000 µg/mL [38]: 13 mm
